# Measurements taken from ChEMBL document CHEMBL1144370, “3-Acyl-2,6-diaminopyridines as cyclin-dependent kinase inhibitors: synthesis and biological evaluation” (Bioorg Med Chem Lett, 2005).
# Experiments:
# [1] = biological target: Epidermal growth factor receptor (Homo sapiens, UniProt P00533); experiment: In vitro inhibitory concentration against epidermal growth factor receptor
# [2] = biological target: Cyclin-dependent kinase 2 (Homo sapiens, UniProt P24941); experiment: In vitro inhibitory concentration against cyclin-dependent kinase 2
# HeLa = experiment: Compound tested for anti-proliferative activity against HeLa cells; format: functional, cell-based; conditions: Homo sapiens
# A-375 = experiment: Compound tested for anti-proliferative activity against A375 cells; format: functional, cell-based; conditions: Homo sapiens
# [3] = biological target: T1, Vascular endothelial growth factor receptor 2 (Homo sapiens, UniProt P35968); experiment: In vitro inhibitory concentration against vascular endothelial growth factor receptor 2
# T1 sequence (P35968 whole entry): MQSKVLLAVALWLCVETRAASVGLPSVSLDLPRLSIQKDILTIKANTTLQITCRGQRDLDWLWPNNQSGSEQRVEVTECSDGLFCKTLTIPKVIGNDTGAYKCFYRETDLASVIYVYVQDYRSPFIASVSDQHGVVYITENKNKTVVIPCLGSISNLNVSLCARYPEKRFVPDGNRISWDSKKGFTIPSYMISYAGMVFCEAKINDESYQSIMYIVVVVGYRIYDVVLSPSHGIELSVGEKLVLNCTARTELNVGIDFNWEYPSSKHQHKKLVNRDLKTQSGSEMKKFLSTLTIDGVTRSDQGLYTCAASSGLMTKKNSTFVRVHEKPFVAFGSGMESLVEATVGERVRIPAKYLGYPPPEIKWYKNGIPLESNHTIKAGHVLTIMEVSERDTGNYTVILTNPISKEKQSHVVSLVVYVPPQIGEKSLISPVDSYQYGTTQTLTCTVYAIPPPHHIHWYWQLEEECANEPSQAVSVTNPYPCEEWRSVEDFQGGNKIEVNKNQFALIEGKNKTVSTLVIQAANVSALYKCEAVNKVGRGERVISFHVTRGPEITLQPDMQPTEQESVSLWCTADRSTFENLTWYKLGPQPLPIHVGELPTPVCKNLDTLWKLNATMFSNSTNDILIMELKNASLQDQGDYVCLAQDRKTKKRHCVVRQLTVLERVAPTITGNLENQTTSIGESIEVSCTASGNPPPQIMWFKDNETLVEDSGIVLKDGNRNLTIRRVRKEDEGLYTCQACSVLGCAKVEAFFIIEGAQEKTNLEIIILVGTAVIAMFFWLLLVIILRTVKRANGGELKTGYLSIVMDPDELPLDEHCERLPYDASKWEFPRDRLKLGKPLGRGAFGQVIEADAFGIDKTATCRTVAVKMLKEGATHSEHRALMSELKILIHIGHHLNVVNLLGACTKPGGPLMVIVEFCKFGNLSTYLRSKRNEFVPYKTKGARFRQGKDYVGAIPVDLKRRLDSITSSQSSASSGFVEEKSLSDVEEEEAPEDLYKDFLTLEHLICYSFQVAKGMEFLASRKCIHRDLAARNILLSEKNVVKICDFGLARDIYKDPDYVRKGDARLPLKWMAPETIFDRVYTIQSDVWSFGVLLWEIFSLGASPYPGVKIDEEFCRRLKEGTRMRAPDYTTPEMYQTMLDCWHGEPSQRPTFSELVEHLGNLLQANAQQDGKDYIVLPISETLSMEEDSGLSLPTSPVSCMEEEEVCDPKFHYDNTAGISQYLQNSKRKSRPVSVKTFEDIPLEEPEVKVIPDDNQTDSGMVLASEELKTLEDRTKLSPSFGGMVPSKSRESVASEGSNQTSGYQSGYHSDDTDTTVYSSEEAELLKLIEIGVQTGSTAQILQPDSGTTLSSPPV
# [4] = biological target: Receptor tyrosine-protein kinase erbB-2 (Homo sapiens, UniProt P04626); experiment: In vitro inhibitory concentration against HER2
# Chain of Receptor tyrosine-protein kinase erbB-2 (P04626 whole entry): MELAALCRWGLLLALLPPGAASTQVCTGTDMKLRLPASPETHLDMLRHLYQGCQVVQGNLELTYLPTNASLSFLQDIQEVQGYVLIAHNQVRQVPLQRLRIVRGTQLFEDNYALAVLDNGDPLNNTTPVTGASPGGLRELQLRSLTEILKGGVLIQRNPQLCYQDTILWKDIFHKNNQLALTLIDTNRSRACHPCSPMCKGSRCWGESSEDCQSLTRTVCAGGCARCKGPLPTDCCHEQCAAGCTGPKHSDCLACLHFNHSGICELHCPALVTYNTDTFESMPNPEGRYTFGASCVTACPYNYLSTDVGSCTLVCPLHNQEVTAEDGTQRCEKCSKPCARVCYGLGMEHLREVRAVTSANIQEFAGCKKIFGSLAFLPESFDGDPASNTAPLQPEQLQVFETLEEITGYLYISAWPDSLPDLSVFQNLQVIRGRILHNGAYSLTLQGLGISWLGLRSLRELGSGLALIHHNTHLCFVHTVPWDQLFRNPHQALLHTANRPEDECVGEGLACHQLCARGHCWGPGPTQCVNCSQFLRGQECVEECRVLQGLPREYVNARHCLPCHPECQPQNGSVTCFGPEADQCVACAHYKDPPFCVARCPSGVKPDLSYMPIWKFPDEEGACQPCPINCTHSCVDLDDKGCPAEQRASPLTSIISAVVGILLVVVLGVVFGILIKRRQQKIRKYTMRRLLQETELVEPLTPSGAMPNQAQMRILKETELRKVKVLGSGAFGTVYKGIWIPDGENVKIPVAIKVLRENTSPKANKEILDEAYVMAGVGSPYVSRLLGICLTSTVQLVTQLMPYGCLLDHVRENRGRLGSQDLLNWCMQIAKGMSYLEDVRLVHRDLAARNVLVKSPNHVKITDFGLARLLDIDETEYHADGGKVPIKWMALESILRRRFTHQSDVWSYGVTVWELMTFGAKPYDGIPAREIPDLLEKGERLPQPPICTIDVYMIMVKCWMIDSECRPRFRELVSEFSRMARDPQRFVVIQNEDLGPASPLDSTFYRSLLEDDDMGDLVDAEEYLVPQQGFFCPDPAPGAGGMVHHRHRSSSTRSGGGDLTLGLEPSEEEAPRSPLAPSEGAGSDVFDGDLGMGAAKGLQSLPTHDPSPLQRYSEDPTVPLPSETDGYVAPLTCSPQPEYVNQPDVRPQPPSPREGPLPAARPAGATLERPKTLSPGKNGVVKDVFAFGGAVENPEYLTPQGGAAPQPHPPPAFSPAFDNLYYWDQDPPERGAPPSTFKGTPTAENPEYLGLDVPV
# HCT-116 = experiment: Compound tested for anti-proliferative activity against HCT116 cells; format: functional, cell-based; conditions: Homo sapiens
# [5] = In vitro inhibitory concentration against cyclin-dependent kinase 1; design: species or system Homo sapiens
# [6] = biological target: T1, Vascular endothelial growth factor receptor 2; experiment: In vitro inhibitory concentration against Vascular endothelial growth factor receptor 2
# Chain of Epidermal growth factor receptor (P00533 whole entry): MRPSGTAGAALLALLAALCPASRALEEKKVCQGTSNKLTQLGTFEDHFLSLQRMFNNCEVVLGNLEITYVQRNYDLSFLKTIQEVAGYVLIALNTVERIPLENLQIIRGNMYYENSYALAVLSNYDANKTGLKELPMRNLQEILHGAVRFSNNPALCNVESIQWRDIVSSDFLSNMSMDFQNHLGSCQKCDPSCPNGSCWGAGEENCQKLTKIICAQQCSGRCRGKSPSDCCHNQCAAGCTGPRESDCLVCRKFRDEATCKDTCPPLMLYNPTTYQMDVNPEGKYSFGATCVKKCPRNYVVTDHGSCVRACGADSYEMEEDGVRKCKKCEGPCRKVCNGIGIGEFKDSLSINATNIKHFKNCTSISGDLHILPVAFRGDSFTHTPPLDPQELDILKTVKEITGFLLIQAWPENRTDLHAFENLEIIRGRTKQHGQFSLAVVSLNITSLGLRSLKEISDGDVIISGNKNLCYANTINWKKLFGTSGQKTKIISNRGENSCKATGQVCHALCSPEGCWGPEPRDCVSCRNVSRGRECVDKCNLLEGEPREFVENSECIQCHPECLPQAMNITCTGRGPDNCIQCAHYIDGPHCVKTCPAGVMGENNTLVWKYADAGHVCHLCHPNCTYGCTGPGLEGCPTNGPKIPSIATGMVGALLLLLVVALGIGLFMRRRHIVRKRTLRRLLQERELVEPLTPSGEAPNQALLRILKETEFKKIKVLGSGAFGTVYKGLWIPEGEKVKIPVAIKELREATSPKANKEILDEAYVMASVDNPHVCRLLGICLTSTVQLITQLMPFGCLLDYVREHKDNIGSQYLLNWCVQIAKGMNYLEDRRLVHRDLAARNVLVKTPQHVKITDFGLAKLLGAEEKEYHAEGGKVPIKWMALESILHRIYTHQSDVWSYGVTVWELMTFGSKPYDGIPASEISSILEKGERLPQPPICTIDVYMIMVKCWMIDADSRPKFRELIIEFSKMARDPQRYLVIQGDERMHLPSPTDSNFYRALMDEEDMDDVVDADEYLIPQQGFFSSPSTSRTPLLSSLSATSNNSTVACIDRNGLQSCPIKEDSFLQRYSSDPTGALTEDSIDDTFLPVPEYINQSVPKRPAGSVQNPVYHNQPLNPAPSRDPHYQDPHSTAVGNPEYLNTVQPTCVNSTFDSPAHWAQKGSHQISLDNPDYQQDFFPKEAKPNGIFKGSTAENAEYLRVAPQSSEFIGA
Structure (SMILES),IC50 [5] [µM],further results
CN(C)S(=O)(=O)c1ccc(Nc2ccc(C(=O)c3c(F)cccc3F)c(N)n2)cc1,0.59,IC50 [1]: > 100 µM; IC50 [2]: 0.5 µM; IC50 (HeLa): > 10 µM; IC50 (A-375): > 10 µM; IC50 [3]: > 100 µM; IC50 [4]: > 100 µM; IC50 (HCT-116): > 10 µM
Nc1ccc(C(=O)c2ccccc2)c(N)n1,1.1,–
Nc1nc(Nc2ccc(S(N)(=O)=O)cc2)ccc1C(=O)c1c(F)cccc1F,0.36,IC50 [1]: > 100 µM; IC50 [2]: 0.18 µM; IC50 [6]: > 100 µM; IC50 (HeLa): 17.2 µM; IC50 (A-375): 6.5 µM; IC50 [4]: > 100 µM; IC50 (HCT-116): 16.5 µM
Nc1nc(Nc2ccc(NS(=O)(=O)c3ccccc3)cc2)ccc1C(=O)c1c(F)cccc1F,0.74,–
Nc1ccc(C(=O)c2ccccc2F)c(N)n1,8.2,–
CCN(CC)S(=O)(=O)c1ccc(Nc2ccc(C(=O)c3ccco3)c(N)n2)cc1,> 100,–
N#Cc1ccc(Nc2ccc(C(=O)c3c(F)cccc3F)c(N)n2)cc1,1.37,–
Nc1nc(Nc2cccc([N+](=O)[O-])c2)ccc1C(=O)c1c(F)cccc1F,2.67,–
Nc1ccc(Nc2ccc(C(=O)c3c(F)cccc3F)c(N)n2)cc1,0.75,–
CN(C)S(=O)(=O)c1ccc(Nc2ccc(C(=O)c3cccs3)c(N)n2)cc1,12.7,–
Nc1ccccc1Nc1ccc(C(=O)c2c(F)cccc2F)c(N)n1,11.6,–
Nc1nc(Nc2ccc(S(=O)(=O)N(Cc3ccccc3)Cc3ccccc3)cc2)ccc1C(=O)c1c(F)cccc1F,> 10,–
Nc1nc(Nc2ccccc2)ccc1C(=O)c1c(F)cccc1F,21.7,–
Nc1ccc(C(=O)c2cccs2)c(N)n1,> 100,–
Nc1ccc(C(=O)c2ccco2)c(N)n1,> 100,–
CC(=O)Nc1ccccc1Nc1ccc(C(=O)c2c(F)cccc2F)c(N)n1,> 100,–
Nc1nc(Nc2ccccn2)ccc1C(=O)c1c(F)cccc1F,12.3,–

Structure (SMILES),IC50 [5] [µM],further results
Nc1nc(Nc2ccccc2NS(=O)(=O)c2ccccc2)ccc1C(=O)c1c(F)cccc1F,> 100,–
CCN(CC)S(=O)(=O)c1ccc(Nc2ccc(C(=O)c3ccccc3)c(N)n2)cc1,> 100,–
NC(=O)c1ccc(Nc2ccc(C(=O)c3c(F)cccc3F)c(N)n2)cc1,0.95,–
Nc1nc(Nc2ccc(C(=O)O)cc2)ccc1C(=O)c1c(F)cccc1F,~10,–
CN(C)S(=O)(=O)c1ccc(Nc2ccc(C(=O)c3ccccc3)c(N)n2)cc1,2.19,–
Nc1nc(Nc2ccccc2[N+](=O)[O-])ccc1C(=O)c1c(F)cccc1F,> 10,–
CCCCOc1cc(Nc2ccc(S(=O)(=O)N(C)C)cc2)nc(N)c1C(=O)c1c(F)cccc1F,1,–
CCCCOc1cc(N)nc(N)c1C(=O)c1c(F)cccc1F,1.2,–
CCCCOc1cc(Nc2ccc(S(N)(=O)=O)cc2)nc(N)c1C(=O)c1c(F)cccc1F,0.26,IC50 [1]: > 100 µM; IC50 [2]: 0.084 µM; IC50 [6]: > 100 µM; IC50 (HeLa): 10.7 µM; IC50 (A-375): 2.9 µM; IC50 [4]: > 100 µM; IC50 (HCT-116): 6.7 µM
CN(C)S(=O)(=O)c1ccc(Nc2ccc(C(=O)c3ccco3)c(N)n2)cc1,10.6,–
CNc1ccc(Nc2ccc(C(=O)c3c(F)cccc3F)c(N)n2)cc1,1.14,–
Nc1nc(Nc2ccc([N+](=O)[O-])cc2)ccc1C(=O)c1c(F)cccc1F,0.96,–
Nc1nc(Nc2cccc(Cl)c2)ccc1C(=O)c1c(F)cccc1F,6.16,–
CN(C)S(=O)(=O)c1ccc(Nc2ccc(C(=O)c3ccccc3F)c(N)n2)cc1,1.96,–
Nc1ccc(C(=O)c2c(F)cccc2F)c(N)n1,2.6,–
Nc1nc(Nc2ccccc2NC(=O)c2ccccc2)ccc1C(=O)c1c(F)cccc1F,> 100,–
